Series [1] has as its system rat's retinal function after ischemic insult. As to the kind of experiment: b-wave recovery of retinal function after ischemic insult (ERG). It is filed as in vivo. To be noted: 1% instilled topically. As to the method:
The retinal ischemia experiment has been described previously (Chiou et al., J. Ocular Pharmacol. 9:179-185, 1993, and Chiou et al., J. Ocular Pharmacol. 10:493-498, 1994). Electroretinograms (ERG) were carried out to assess the retinal function prior to and after the ischemic insult. ERGs were recorded using Ag/AgCl electrodes placed in contact with the cornea. One stainless steel needle was inserted subcutaneously between the two eyes as a reference electrode, and another needle was inserted subcutaneously into the neck as a ground electrode. A photostimulator (Grass PS22 Flash) was used to produce flashes of light 5 inches from the eye, and the ERG potentials were recorded on a polygraph. The ERG system was purchased from LKC Technologies, Inc. (Gaithersburg, Md.). A single flash (10 msec) of white light stimuli was used to evoke ERG a- and b-waves. Peak b-wave amplitudes were measured from the trough of the a-wave to the peak of the b-wave.
Long-Evans rats (200-250 g), dark-adapted at least 2 hours, were anaesthetized intramuscularly with ketamine (35 mg/kg) plus xylazine (5 mg/kg). Half of the initial dose was administrated at one hour intervals to maintain adequate anesthesia. The pupils were dilated with 1% tropicamide (50 μl) for ERG experiments. Retinal ischemia was produced by occlusion of the central retina and posterior ciliary arteries using a ligature placed around the optic nerve and posterior ciliary artery. The ligature was drawn tightly through a micropipette tip placed at the base of the eyeball socket to occlude the retinal vessels for 30 min. After 30 min of retinal ischemia, the ligature was liberated and the retinal arteries allowed to reperfuse. ERGs were measured at 30, 60, 90, 120, 180 and 240 min thereafter. The compounds and vehicle were administered topically before occlusion of the central retinal arteries.

The subject of series [2] is Ocular Hypertensive Rabbit. As to the kind of experiment: Ocular blood flow in ocular hypertensive rabbit (colored microspheres). It is filed as in vivo. To be noted: 1% topical instillation, 30 minutes after drug instillation. As to the method:
0.5% alcaine was purchased commercially. A 20% sterilized hypertonic saline solution was prepared in the laboratory. Colored microspheres were purchased from E-Z Trac (Los Angeles, Calif.). The colored microspheres were diluted with saline containing 0.01% (v/v) of Tween 80 to prevent the microspheres from sticking together. Two million microspheres in 0.4 ml were injected at each time point.
Female New Zealand white rabbits weighing 2.-3.0 kg, were purchased commercially. Animal care and treatment were followed by the institutional guidelines.
Rabbits were anesthetized with 35 mg/kg ketamine and 5 mg/kg xylazine by intramuscular injection. Half of the initial dose was given every one hour thereafter. The left ventricle was cannulated through the right carotid artery for injection of colored microspheres and the femoral artery was cannulated for collection of blood samples. The left eye was treated with one drop of proparacaine hydrochloride ophthalmic solution (Bausch & Lomb, Inc., Tampa, Fla., USA). The needle was inserted directly into the anterior chamber of the left eye, which was connected to the 40 mmHg saline manometer. The ocular hypertensive model reduced the ocular blood flow to approximately one third of the normal valued. 50 μl of 10 g/l flavone or vehicle (30% HP-β-CD solution) was instilled topically to the left eye 30 minutes after the ocular hypertensive model was built. The ocular blood flow was measured by colored microspheres at 0, 30, 60 and 120 minutes after treatment with the compounds or vehicle. At each time point, 2 million microspheres were injected as a reference, and blood samples were taken from the femoral artery for exactly one minute following injection of the microspheres. The blood sample was collected in a heparinized tube and the volume was recorded. The rabbits were euthanized with an injection of 100 mg/kg pentobarbital sodium after the last blood sampling. The left eyes were enucleated and dissected into the iris, ciliary body, retina and choroid. All the tissues were weighed.
The details of sample processing and microsphere counting were provided by E-Z Trac (Los Angeles, Calif., USA). In brief, the blood hemolysis reagent was added to the microfuge tubes with the blood sample, then vortexed and centrifuged for 30 minutes at 6000 rpm. The supernatant was removed, and then tissue/blood digest reagents I and II were added. The tubes were capped, vortexed, and centrifuged for 30 minutes. […] The number of microspheres was counted by the hemocytometer under the microscope. […] The protocol thereafter was the same as that used to process the blood samples, and the microspheres were counted.
The blood flow of each tissue at a certain time point was calculated according to the following formula: Qm=(Cm×Qr)/Cr. […]

For the compound `CC(C)=CCC/C(C)=C/Cc1c(O)cc2c(c1O)C(=O)C[C@@H](c1ccc(O)c(O)c1)O2` [Formula (I)], in series [1] (after 30 min retinal ischemia and reperfusion), the “b-wave amplitude recovery, of the original level” value is “approximately 50%”. Besides, the “duration of drug action on b-wave recovery” value in series [1] (after drug application) was “at least 240 min”. Besides, in series [2], the “blood flow in choroid” value was “significantly increased” and the “blood flow in iris” value was “significantly increased”.

Values taken from patent publication US9370503B1, “Compounds for treating ocular diseases” (priority 2015, dated 2016).
